Measured values: patent US20110144353A1, “5-HYDROXY-4-AMINOMETHYL-1-C[…] (CYCLOHEPTYL)--3-ALKO[…] DERIVATIVES, PHARMA[…] SALTS THEREOF AND A METHOD FOR THE PRODUCTION THEREOF” (OBSCHESTVO S ORGANICHENNOY OTVETSTVENNOSTJU <<BINATEKH>>, priority 2008, published 2011)
Values after ≈ are worked out from the molar mass of the structure shown.

What was measured:
[1] = test system: Influenza A/New Caledonia/20/99 (H1N1) Virus; experiment: microbe, parasite or virus in culture; assay type: cell-based; conditions: for MIC50: Influenza A virus, H1N1, MDCK cells, concentration decreasing OD by 50%, solvent alcohol
[2] = test system: influenza A/Aichi/2/69 (H3N2) virus; experiment: Murine influenza pneumonia model; assay type: in vivo, mice; conditions: for Mean Life Span / Mortality / Survival rate: mice infected with 10 LD50; for Mortality reduction: versus virus control
Experimental: Determination of the efficacy of the compounds in the murine influenza pneumonia model.
The experiments were carried out on 60 white mice weighing 12-15 g. The animals were infected intranasally under light ether anesthesia with the influenza A/Aichi/2/69 (H3N2) virus (10 LD50). The compounds to be tested were administered per os in a dose of 60 or 15 mg/kg/day. The treatment was carried out according to the following scheme: 24 hours and 1 hour before infection, and then 2 times a day (at 8 o'clock in the morning and 8 o'clock in the evening) for 5 days. The chemotherapeutic activity of Arbidol and compound A in the murine influenza pneumonia model was assessed according to two criteria: the index of protection against fatal viral infection and the increase in mean life span of the treated animals as compared with the control group. The mean life span of the mice was calculated according to the following formula: Σf(d−1)/n, where f is the number of mice dying on day d (the surviving mice were also included in f; d in this case=16); n is the number of mice in the group.

## CCOC(=O)c1c(CSc2ccccc2)n(C)c2cc(Br)c(O)c(CN(C)C)c12 [Arbidol, 1-methyl-2-phenylthiomethyl-3-carbethoxy-4-dimethylaminomethyl-5-oxy-6-bromindol]
[1]
  Activity at 10 μg/mL: 89.5%
  MIC50: 6 mg/L (≈ 12.6 µM)
[2]; 15 mg/kg/day per os
  Mean Life Span: 7.3 days
  Mortality: 70%
  Survival rate: 3/10
  Mortality reduction: 20%
[2]; 60 mg/kg/day per os
  Mean Life Span: 10.8 days
  Mortality: 40%
  Survival rate: 6/10
  Mortality reduction: 50%

## CCOC(=O)c1c(C)n(C2CCCCC2)c2ccc(O)c(CN(C)C)c12 [Compound A, 5-hydroxy-4-dimethylaminomethyl-2-methyl-1-cyclohexyl-3-ethoxycarbonyl indole]
[1]
  Activity at 10 μg/mL: 96.5%
  MIC50: 5.4 mg/L (≈ 15.1 µM)
[1]; summary of Table 1
  Activity in in vitro experiments compared with Arbidol: somewhat more active than Arbidol
[2]; 15 mg/kg/day
  Efficacy in animal experiments: equal to the efficacy of Arbidol at a dose 4 times higher
[2]; 15 mg/kg/day per os
  Mean Life Span: 11.5 days
  Mortality: 40%
  Survival rate: 5/8
  Mortality reduction: 50%
[2]; summary of Table 2
  Activity in animal experiments compared with Arbidol: significantly more active than Arbidol
